One assay has as its target MAP4K1 (Homo sapiens, UniProt Q92918). Put plainly: biochemical.
In another assay the test system is pSer376-SLP-76. Put plainly: Phosphorylation assay in human cell line (Jurkat E6.1 overexpressing FLAG-tagged SLP-76, a-CD3 stimulated). In kind it is cell-based. The settings on record: 30 min at 37° C., Jurkat E6.1 cells; for % amount of pSer376-SLP-76 @ 10 μM: 10 μM compound; for % amount of pSer376-SLP-76 @ 20 μM: 20 μM compound. The protocol:
Phosphorylation assays were carried out in Jurkat E6.1 cells from American Type Culture Collection (ATCC) stably overexpressing human FLAG-tagged SLP-76 (proprietary). […] Applied compounds were tested at either fixed concentration of 10 μmol/L and 20 μmol/L or in a 8 point dose response titration of increase compound concentration with 10 nmol/L. 50 nmol/L. 100 nmol/L. 500 nmol/L. 1 μmol/L. 5 μmol/L. 10 μmol/L and 20 μmol/L in triplicates. The cells were washed once in phosphate-buffered saline (pH 7.4). Cells were lysed using a lysis buffer containing 50 mmol/L Tris-Cl (pH 7.5). 150 mM NaCl. 2 mM EDTA. 1% Triton-X 100. 0.5% Na-DOC. 0.1% SDS. […] Probe antibodies used were a rabbit monoclonal antibody supernatant raised against human phospho-Ser376-SLP-76 peptide (proprietary) and for mormalization an a-alpha-Tubulin. mouse monoclonal antibody (Sigma #T9026). […] Cells with a-CD3 treatment only were used as negative control (min control. which represent the minimally possible inhibition of pSer376-SLP-76 by a test compound)
AUC values of each respective test sample were normalized using the AUC of housekeeping gene alpha-Tubulin and AUC of pSer376-SLP-76 of the min control. The percentage of the amount of pSer-SLP-76 in the treatment samples was calculated using the max control and min control values of the respective Peggy Sue™ run.

Sequence of MAP4K1 (Q92918 whole entry): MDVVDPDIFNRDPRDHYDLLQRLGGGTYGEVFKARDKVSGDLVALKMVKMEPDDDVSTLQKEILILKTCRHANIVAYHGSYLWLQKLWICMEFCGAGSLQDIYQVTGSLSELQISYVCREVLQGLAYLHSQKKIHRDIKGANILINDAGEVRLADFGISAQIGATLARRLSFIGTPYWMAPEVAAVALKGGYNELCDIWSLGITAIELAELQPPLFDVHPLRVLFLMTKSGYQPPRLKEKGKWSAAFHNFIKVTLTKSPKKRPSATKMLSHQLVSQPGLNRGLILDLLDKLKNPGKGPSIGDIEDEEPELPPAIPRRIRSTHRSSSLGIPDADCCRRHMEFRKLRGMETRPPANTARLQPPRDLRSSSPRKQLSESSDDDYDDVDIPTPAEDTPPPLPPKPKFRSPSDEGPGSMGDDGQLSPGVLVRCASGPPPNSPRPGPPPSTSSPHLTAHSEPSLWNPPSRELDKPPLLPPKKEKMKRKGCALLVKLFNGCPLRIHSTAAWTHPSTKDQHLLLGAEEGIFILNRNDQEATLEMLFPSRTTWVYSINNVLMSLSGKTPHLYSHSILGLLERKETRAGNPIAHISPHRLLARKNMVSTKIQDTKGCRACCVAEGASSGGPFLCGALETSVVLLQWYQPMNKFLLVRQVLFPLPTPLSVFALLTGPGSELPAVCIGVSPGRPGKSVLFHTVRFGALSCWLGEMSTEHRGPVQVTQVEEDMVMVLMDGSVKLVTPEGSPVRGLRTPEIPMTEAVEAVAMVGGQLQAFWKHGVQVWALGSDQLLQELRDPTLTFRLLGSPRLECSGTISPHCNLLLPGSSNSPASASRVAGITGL

With `N#Cc1cc(NC(=O)NCCCN2CCOCC2)ccc1Oc1ccnc2[nH]cc(C(F)(F)F)c12` [Example 7, 1-(3-cyano-4-{[3-(trifluoromethyl)-1H-pyrrolo[2,3-b]pyridin-4-yl]oxy}phenyl)-3-[3-(morpholin-4-yl)propyl]urea], the IC50 against MAP4K1 worked out at 138 nM.
Turning to `Cc1cc(NC(=O)NCCN2CCOCC2)ccc1Oc1ccnc2[nH]cc(C(F)(F)F)c12` [Example 5, 1-(3-methyl-4-{[3-(trifluoromethyl)-1H-pyrrolo[2,3-b]pyridin-4-yl]oxy}phenyl)-3-[2-(morpholin-4-yl)ethyl]urea], in the assay on pSer376-SLP-76, the “% amount of pSer376-SLP-76 @ 10 μM” value is listed as 48.1% and the “% amount of pSer376-SLP-76 @ 20 μM” value stood at 25.3%.
Consider `N#Cc1cc(NC(=O)NCCN2CCOCC2)ccc1Oc1ccnc2[nH]cc(C(F)(F)F)c12` [Example 6, 1-(3-cyano-4-{[3-(trifluoromethyl)-1H-pyrrolo[2,3-b]pyridin-4-yl]oxy}phenyl)-3-[2-(morpholin-4-yl)ethyl]urea], for which it took 212 nM to reach half-maximal inhibition at MAP4K1 (IC50).
On to `O=C(NCCN1CCOCC1)Nc1ccc(Oc2ccnc3[nH]cc(C(F)(F)F)c23)cc1` [Example 1, 1-[2-(morpholin-4-yl)ethyl]-3-(4-{[3-(trifluoromethyl)-1H-pyrrolo[2,3-b]pyridin-4-yl]oxy}phenyl)urea], for which, in the assay on pSer376-SLP-76, the “% amount of pSer376-SLP-76 @ 10 μM” value came out at 40.8% and the “% amount of pSer376-SLP-76 @ 20 μM” value worked out at 16.0%.
`Cc1cc(NC(=O)NCCCN2CCOCC2)ccc1Oc1ccnc2[nH]cc(C(F)(F)F)c12` [Example 4, 1-(3-methyl-4-{[3-(trifluoromethyl)-1H-pyrrolo[2,3-b]pyridin-4-yl]oxy}phenyl)-3-[3-(morpholin-4-yl)propyl]urea]: in the assay on pSer376-SLP-76, the “% amount of pSer376-SLP-76 @ 10 μM” value worked out at 45.6% and the “% amount of pSer376-SLP-76 @ 20 μM” value worked out at 18.1%. Besides, 74 nM corresponded to half-maximal inhibition against MAP4K1 (IC50).

As a reminder, the IC50 is the midpoint of a concentration-inhibition curve.

Source of the values: patent US20200246347A1, “Substituted Pyrrolopyridine-Derivatives” (BAYER PHARMA AKTIENGESELLSCHAFT, priority 2017, published 2020).
